Reference: publication PMC6039321 (International Journal for Parasitology: Drugs and Drug …, 2018)
Read-outs that look alike come from different tables or passages of the source.

Experiments:
HEK 293 cells = type: cell-based, H. sapiens; conditions: for IC50: read-out: OCA HEK 293 IC50, Table 4
cytbc1 = cytbc1 (Plasmodium falciparum, UniProt Q02768); assay: Enzymatic cytbc1 activity; type: biochemical, P. falciparum K1 strain; conditions: for % Inhibition Cytbc1 biochemical assay, 5 μM: compound at 5 μM, P. falciparum mitochondria, atovaquone 100% inhibition control
Chain of cytbc1 (Q02768 whole entry): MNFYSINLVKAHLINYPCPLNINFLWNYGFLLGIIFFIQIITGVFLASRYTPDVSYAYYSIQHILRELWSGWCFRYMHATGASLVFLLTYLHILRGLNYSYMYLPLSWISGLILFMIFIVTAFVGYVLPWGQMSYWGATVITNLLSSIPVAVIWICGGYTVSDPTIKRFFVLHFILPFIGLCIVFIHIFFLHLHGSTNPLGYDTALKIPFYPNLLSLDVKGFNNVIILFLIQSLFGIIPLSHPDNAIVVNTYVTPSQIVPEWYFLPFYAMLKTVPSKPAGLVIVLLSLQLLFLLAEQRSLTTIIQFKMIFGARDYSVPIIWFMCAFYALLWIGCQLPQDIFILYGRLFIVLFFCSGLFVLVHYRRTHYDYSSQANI

P. yoelii (17XL) = assay: microbe, parasite or virus in culture; type: cell-based, Plasmodium yoelii; conditions: for IC50: read-out: OCA P. yoelii IC50
P. falciparum (K1) = type: cell-based, Plasmodium falciparum

Compound | % Inhibition Cytbc1 biochemical assay, 5 μM (cytbc1) | IC50 (P. yoelii (17XL); Table 4) | IC50 (HEK 293 cells) | also measured
C=C(C)[C@H]1Cc2c(ccc3c2O[C@@H]2COc4cc(OC)c(OC)cc4[C@@H]2C3=O)O1 [Rotenone, reference compound] | – | – | – | inhibition of oxygen consumption signal in HEK 293 cells (HEK 293 cells; rotenone at 2.5 μM, 6.5·10^5 HEK 293 cells (Fig. 2A)): completely inhibited
COc1ccc(NS(=O)(=O)c2cc(NC(=O)Cn3ccccc3=O)ccc2N2CCCCC2)cc1 [TCMDC-124874] | 59.97 ± 8.70% | 0.76 ± 0.109 µM | > 10 µM | –
O=C(Nc1ccccc1O)c1ccc(S(=O)(=O)c2ccc(Cl)cc2)cc1 [TCMDC-123689] | 99.84 ± 2.22% | 8.19 ± 1.26 µM | > 10 µM | –
O=C1C(O)=C([C@H]2CC[C@H](c3ccc(Cl)cc3)CC2)C(=O)c2ccccc21 [Atovaquone, reference compound] | – | – | – | inhibition at 0.5 µM (cytbc1; read-out: % Inhibition Cytbc1 biochemical assay, 0.5 μM): 105 ± 8.26%; inhibition at 5 µM (cytbc1; read-out: % Inhibition Cytbc1 biochemical assay, 5 μM): 101 ± 9.82%; inhibition of oxygen consumption signal in Plasmodium cells (P. yoelii (17XL); 1.25 μM atovaquone, 2·10^7 P. yoelii cells (Fig. 2B)): completely inhibited; IC50 (P. yoelii (17XL); Plasmodium yoelii): 0.005 ± 0.001 µM
c1ccc(CCNc2ncnc3c2[nH]c2ccccc23)cc1 [TCMDC-124578] | 100.30 ± 2.14% | 0.292 ± 0.249 µM | 7.52 ± 0.5 µM | –
C/C=C(C)/C=C/C=C/[C@H](OC)[C@@H](C)[C@@H](OC)[C@@H](C)CCc1oc2c(O)c(OC)cc(OC)c2c(=O)c1C [Stigmatellin] | – | – | – | Selectivity (P. falciparum vs H. sapiens) (P. falciparum (K1); ratio of OCA IC50 HEK 293 / P. falciparum K1): 0.015
N#CC(C#N)=NNc1ccc(OC(F)(F)F)cc1 [FCCP, carbonyl cyanide 4-(trifluoromethoxy)phenylhydrazone] | – | – | – | Selectivity (P. falciparum vs H. sapiens) (P. falciparum (K1)): 1.93

Second part, led by results:

% Inhibition Cytbc1 biochemical assay, 5 μM (cytbc1) | IC50 (P. yoelii (17XL); Table 4) | Compound | IC50 (HEK 293 cells) | also measured
77.11 ± 12.20% | 1.1 ± 0.131 µM | Cc1cccc(-c2nn(-c3ccccc3)cc2C(=O)Nc2nnc(C)o2)c1 [TCMDC-125039] | > 10 µM | –
50.34 ± 6.78% | 1.32 ± 0.86 µM | Clc1cccc(Nc2ccc3c(N4CCCCC4)ncnc3n2)c1 [TCMDC-134937] | > 10 µM | –
91.48 ± 7.57% | 0.514 ± 0.225 µM | COCCN(C)c1ccc(C(=O)Nc2ccccc2)cc1NS(=O)(=O)Cc1ccccc1.O=C(O)C(F)(F)F [TCMDC-134575] | > 10 µM | –
89.93 ± 9.67% | 2.2 ± 1.95 µM | Cc1cccc2nc(-c3ccc(-c4ccc(CN5CC(C)OC(C)C5)cc4)cc3)[nH]c12.O=C(O)C(F)(F)F (stereo not shown) [TCMDC-133823] | > 10 µM | –
